IC50 data for 24 compounds are collected here from US20230031406A1, “COMPOUNDS AND COMPOSITIONS FOR TREATING CONDITIONS ASSOCIATED WITH NLRP ACTIVITY” (Novartis AG, priority 2018, published 2023).

Structures are written as SMILES. pIC50: −log10 of the molar value. Like-named read-outs stand apart in the source and are kept apart here.

The assay deals with PMA-differentiated THP-1 cells. As to the kind of experiment: IL-1β production in PMA-differentiated THP-1 cells stimulated with gramicidin (hTHP-1 assay containing 2% fetal bovine serum; Procedures 1 and 2). The format is cell-based, human. Put shortly: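 PMA 20 ng/ml 16-18 h → trypsinise → 50,000 cells/well, RPMI/2% FBS; cpd 1 h (11-pt, 100–0.0017 μM; DMSO 0.37%); gramicidin 5 μM, 2 h; spin; supernatant IL-1β via HTRF.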

The mark [1] stands for this setting: Homo sapiens, THP-1, Table B1, 2% fetal bovine serum, class symbols, read-out: Average IC50 of compounds in hTHP-1 assay: hTHP-1 IC50.
Setting [2] is: Homo sapiens, THP-1, Table B2, 2% fetal bovine serum, class symbols, read-out: hTHP-1 IC50.
The mark [3] stands for this setting: Homo sapiens, THP-1, Table B3, hTHP-1 assay, 2% fetal bovine serum, numeric values, read-out: IC50.
Setting [4] is: Table B1, 2% fetal bovine serum, class symbols, read-out: Average IC50 of compounds in hTHP-1 assay: hTHP-1 IC50.
The mark [5] stands for this setting: Homo sapiens, THP-1, Table B3, hTHP-1 assay, 2% fetal bovine serum, class symbols, read-out: IC50.

Regarding `NS(=O)(=NC(=O)Nc1c2c(nc(C(F)(F)F)c1C1CC1)CCC2)c1nn(C(F)F)cc1F` (stereo not shown) [Compound 984a], for the setting “Table B3, hTHP-1 assay, 2% fetal bovine serum, class symbols, listed as Compound 984a, read-out: IC50”, the pIC50 (commonly the IC50 on a negative log10 scale, so that one unit is a factor of ten) is 4.52 to 5.30.

With `CC(C)c1c(-c2ccccc2)nc2c(c1NC(=O)N=S(N)(=O)c1cnc(C(C)(C)O)s1)CCC2` (stereo not shown) [Compound 145, 2-(2-hydroxypropan-2-yl)-N′-((3-isopropyl-2-phenyl-6,7-dihydro-5H-cyclopenta[b]pyridin-4-yl)carbamoyl)thiazole-5-sulfonimidamide], the negative-log IC50 (pIC50) under setting [1] was 4.52 to 5.30.

`Cc1nc2c(c(NC(=O)N=S(N)(=O)c3cc(C(C)(C)O)cs3)c1C1CC1)CCC2` (stereo not shown) [Compound 623, N′-((3-cyclopropyl-2-methyl-6,7-dihydro-5H-cyclopenta[b]pyridin-4-yl)carbamoyl)-4-(2-hydroxypropan-2-yl)thiophene-2-sulfonimidamide]: the negative logarithm of the IC50 (pIC50) under setting [2] was 6.00 to 6.70.

With `CC(C)n1nc(S(N)(=O)=NC(=O)Nc2c3c(nc4c2CC[C@H]4C)CCC3)cc1CO` (single isomer, unassigned) [Example 644, (S) or (R)-5-(hydroxymethyl)-1-isopropyl-N′-(((R)-3-methyl-1,2,3,5,6,7-hexahydrodicyclopenta[b,e]pyridin-8-yl)carbamoyl)-1H-pyrazole-3-sulfonimidamide], the pIC50 under setting [3] is < 4.52.

Consider `Cn1nc(S(N)(=O)=NC(=O)Nc2c3c(nc4c2CCC4)CCC3)cc1C(C)(C)O` (single isomer, unassigned) [Compound 158a, (R) or (S)-N′-((1,2,3,5,6,7-hexahydrodicyclo-penta[b,e]pyridin-8-yl)carbamoyl)-5-(2-hydroxypropan-2-yl)-1-methyl-1H-pyrazole-3-sulfonimidamide], for which, under setting [1], the pIC50 is 5.30 to 6.00.

Take `CC(C)(O)c1ccc(S(N)(=O)=NC(=O)Nc2c3c(nc4c2CCC4)CCC3)cn1` (single isomer, unassigned) [Compound 156b, (R) or (S)-N′-((1,2,3,5,6,7-hexahydrodicyclo-penta[b,e]pyridin-8-yl)carbamoyl)-6-(2-hydroxypropan-2-yl)pyridine-3-sulfonimidamide]: the pIC50 under setting [1] is 5.30 to 6.00.

With `CC(C)n1nc(S(N)(=O)=NC(=O)Nc2c3c(nc4c2CCC4(C)C)CCC3)cc1CO` (stereo not shown) [Compound 652, N′-((3,3-dimethyl-1,2,3,5,6,7-hexahydrodicyclopenta[b,e]pyridin-8-yl)carbamoyl)-5-(hydroxymethyl)-1-isopropyl-1H-pyrazole-3-sulfonimidamide], under setting [2], the pIC50 was 5.30 to 6.00.

On to `CC1CCc2c1nc1c(c2NC(=O)N=S(N)(=O)c2ccn(C(F)F)n2)CCC1` (single isomer, unassigned) [Compound 184c, (R,S) or (R,R)-1-(difluoro-methyl)-N′-((3-methyl-1,2,3,5,6,7-hexahydro-dicyclopenta[b,e]pyridin-8-yl)carbamoyl)-1H-pyrazole-3-sulfonimidamide], for which the pIC50 under setting [4] is 4.52 to 5.30.

For the compound `Cc1cc(C2CC2)nc(NC(=O)N=S(N)(=O)c2ncc(C(C)(C)O)s2)n1` (single isomer, unassigned) [Compound 185a, (R) or (S)-N′-((4-cyclopropyl-6-methylpyrimidin-2-yl)carbamoyl)-5-(2-hydroxypropan-2-yl)thiazole-2-sulfonimidamide], the pIC50 under setting [1] was 4.52 to 5.30 and the pIC50 under setting [2] was 4.52 to 5.30.

With `CC(C)(O)c1scc(S(N)(=O)=NC(=O)Nc2c3c(nc4c2CCC4)CCC3)c1F` (single isomer, unassigned) [Compound 701a, (R) or (S)-4-Fluoro-N′-((1,2,3,5,6,7-hexahydrodicyclopenta [b,e]pyridin-8-yl)carbamoyl)-5-(2-hydroxypropan-2-yl)thiophene-3-sulfonimidamide], the pIC50 under setting [2] is 4.52 to 5.30.

Consider `CC(C)n1cc(CO)c(S(N)(=O)=NC(=O)Nc2c3c(nc4c2CCC4(C)C)CCC3)n1` (single isomer, unassigned) [Compound 682b, (R) or (S)-N′-((3,3-dimethyl-1,2,3,5,6,7-hexahydrodicyclopenta [b,e]pyridin-8-yl)carbamoyl)-4-(hydroxymethyl)-1-isopropyl-1H-pyrazole-3-sulfonimidamide], for which the negative logarithm of the IC50 (pIC50) under setting [2] was 5.30 to 6.00.

Turning to `CCc1c(C(F)(F)F)nc2c(c1NC(=O)N=S(N)(=O)c1nn(CC)cc1F)CCC2` (single isomer, unassigned) [Example 772, (S) or (R)-1-ethyl-N′-((3-ethyl-2-(trifluoromethyl)-6,7-dihydro-5H-cyclopenta[b]pyridin-4-yl)carbamoyl)-4-fluoro-1H-pyrazole-3-sulfonimidamide], the negative logarithm of the IC50 (pIC50) (Table B4, 2% fetal bovine serum, class symbols, read-out: hTHP-1 IC50) was 4.52 to 5.30.

With `CCn1cc(F)c(S(N)(=O)=NC(=O)Nc2c(C)c(C(F)(F)F)nc3c2CC(C)C3)n1` (single isomer, unassigned) [Compound 1101a], the pIC50 (Homo sapiens, THP-1, read-out: hTHP-1 IC50 in 2% FBS, hTHP-1 assay containing 2% fetal bovine serum, Table B5) is 6.70 to 7.40.

In the case of `CCc1c(C(F)(F)F)nc2c(c1NC(=O)N=S(N)(=O)c1nn(CC)cc1F)CCC2` (stereo not shown) [Example 743, 1-Ethyl-N′-((3-ethyl-2-(trifluoromethyl)-6,7-dihydro-5H-cyclopenta[b]pyridin-4-yl)carbamoyl)-4-fluoro-1H-pyrazole-3-sulfonimidamide], for the setting “Homo sapiens, THP-1, Table B4, 2% fetal bovine serum, class symbols, read-out: hTHP-1 IC50”, the pIC50 is 5.30 to 6.00.

As for `CCc1c(C(F)(F)F)nc2c(c1NC(=O)N=S(N)(=O)c1sc(C(C)(C)O)cc1F)CCC2` (stereo not shown) [Compound 611, N′-((3-ethyl-2-(trifluoromethyl)-6,7-dihydro-5H-cyclopenta[b]pyridin-4-yl)carbamoyl)-3-fluoro-5-(2-hydroxypropan-2-yl)thiophene-2-sulfonimidamide], the pIC50 under setting [2] was 6.00 to 6.70.

With `CCc1c(C)nc2c(c1NC(=O)N=S(N)(=O)c1cnc(C(C)(C)O)s1)CCC2` (single isomer, unassigned) [Compound 117a, (S) or (R)-N′-((3-ethyl-2-methyl-6,7-dihydro-5H-cyclopenta[b]pyridin-4-yl)carbamoyl)-2-(2-hydroxypropan-2-yl)thiazole-5-sulfonimidamide], the pIC50 (Homo sapiens, THP-1, Table B1, 2% fetal bovine serum, numeric bounds, read-out: Average IC50 of compounds in hTHP-1 assay: hTHP-1 IC50) is < 4.52.

Consider `Cc1c(C(F)(F)F)nc2c(c1NC(=O)N=S(N)(=O)c1cnn3c1OC[C@H](O)C3)CCC2` (stereo partly drawn) [Example 601, (6R)-6-hydroxy-N′-((3-methyl-2-(trifluoromethyl)-6,7-dihydro-5H-cyclopenta[b]pyridin-4-yl)carbamoyl)-6,7-dihydro-5H-pyrazolo[5,1-b][1,3]oxazine-3-sulfonimidamide], for which, under setting [5], the pIC50 is 4.52 to 5.30.

For `CC(C)c1cncc(C(C)C)c1NC(=O)N=S(N)(=O)c1cnc(C(C)(C)O)s1` (single isomer, unassigned) [Compound 160b, (S) or (R)-N′-((3,5-diisopropylpyridin-4-yl)carbamoyl)-2-(2-hydroxypropan-2-yl)thiazole-5-sulfonimidamide], under setting [1], the pIC50 is 4.52 to 5.30.

Regarding `Cc1c(C(C)C)nc2c(c1NC(=O)N=S(N)(=O)c1sc(C(C)(C)O)cc1F)CCC2` (stereo not shown) [Compound 645, 3 -Fluoro-5-(2-hydroxypropan-2-yl)-N′-((2-isopropyl-3-methyl-6,7-dihydro-5H-cyclopenta[b]pyridin-4-yl)carbamoyl)thiophene-2-sulfonimidamide], under setting [2], the negative-log IC50 (pIC50) was 6.70 to 7.40.

With `CC(C)(O)c1csc(S(N)(=O)=NC(=O)Nc2c3c(nc4c2CCC4(C)C)CCC3)c1` (single isomer, unassigned) [Compound 127a, (S) or (R)-N′-((3,3-dimethyl-1,2,3,5,6,7-hexahydro-dicyclopenta[b,e]pyridin-8-yl)carbamoyl)-4-(2-hydroxypropan-2-yl)thiophene-2-sulfonimidamide], the pIC50 under setting [4] is 5.30 to 6.00.

Take `CC(C)(O)c1sc(S(N)(=O)=NC(=O)Nc2c3c(nc4c2CCC4(C)C)CCC3)cc1F` (single isomer, unassigned) [Compound 613b, -N′-((3,3-dimethyl-1,2,3,5,6,7-hexahydrodicyclopenta [b,e]pyridin-8-yl)carbamoyl)-4-fluoro-5-(2-hydroxypropan-2-yl)thiophene-2-sulfonimidamide]: the negative logarithm of the IC50 (pIC50) (Table B2, 2% fetal bovine serum, class symbols, read-out: hTHP-1 IC50) was 5.30 to 6.00.

`CC1CCc2c1nc1c(c2NC(=O)N=S(N)(=O)c2ccc(CN(C)C)cc2F)CCC1` (stereo not shown) [Compound 139, 4-((dimethylamino)methyl)-2-fluoro-N′-((3-methyl-1,2,3,5,6,7-hexahydrodicyclopenta[b,e]pyridin-8-yl)carbamoyl)benzenesulfon-imidamide]: the negative logarithm of the IC50 (pIC50) under setting [1] is 6.00 to 6.70.

Consider `CCn1cc(F)c(S(N)(=O)=NC(=O)Nc2c(C)c(CC(F)(F)F)nc3c2CCC3)n1` (single isomer, unassigned) [Example 718, (S) or (R)-1-ethyl-4-fluoro-N′-((3-methyl-2-(2,2,2-trifluoroethyl)-6,7-dihydro-5H-cyclopenta[b]pyridin-4-yl)carbamoyl)-1H-pyrazole-3-sulfonimidamide], for which, under setting [3], the negative-log IC50 (pIC50) is < 4.52.

For `C[C@](O)(CO)c1cc(F)c(S(N)(=O)=NC(=O)Nc2c3c(nc4c2CCC42CC2)CCC3)s1` (stereo partly drawn) [Example 608, 5-((S)-1,2-dihydroxypropan-2-yl)-3-fluoro-N′-((1′,5′,6′,7′-tetrahydro-2′H-spiro[cyclopropane-1,3′-dicyclopenta[b,e]pyridin]-8′-yl)carbamoyl)thiophene-2-sulfonimidamide], under setting [5], the pIC50 was 6.70 to 7.40.
